Data taken from patent US9944608B2, “Herbicidal pyridazinone derivatives” (Syngenta Participations AG, priority 2014, dated 2018).

Assays:
Experiment in all cases: B1 Post-emergence efficacy, glasshouse pot test
Format in all cases: in vivo
Conditions in all cases: post-emergence application, 1000 g/ha, evaluated after 13 days
[1] = test system: Ipomoea hederacea (IPOHE)
Experimental: (§1) B1 Post-Emergence Efficacy Seeds of a variety of test species are sown in standard soil in pots:—Solanum nigrum (SOLNI), Amaranthus retoflexus (AMARE), Setaria faberi (SETFA), Alopecurus myosuroides (ALOMY), Echinochloa crus-galli (ECHCG), Ipomoea hederacea (IPOHE), Lolium perenne (LOLPE). After 8 days cultivation (post-emergence) under controlled conditions in a glasshouse (at 24/16° C., day/night; 14 hours light; 65% humidity), the plants are sprayed with an aqueous spray solution derived from the formulation of the technical active ingredient in acetone/water (50:50) solution containing 0.5% Tween 20 (polyoxyethelyene sorbitan monolaurate, CAS RN 9005-64-5). Compounds are applied at 1000 g/ha. The test plants are then grown in a glasshouse under controlled conditions in a glasshouse (at 24/16° C., day/night; 14 hours light; 65% humidity) and watered twice daily. After 13 days, the test is evaluated for the percentage damage caused to the plant. The biological activities are assessed on a five point scale (5=80-100%; 4=60-79%; 3=40-59%; 2=20-39%; 1=0-19%). A blank value in the table is indicative that the compound was not tested on that species.

Lolium perenne (LOLPE) = test system: Lolium perenne (LOLPE)
Experimental: as §1

[2] = test system: Amaranthus retoflexus (AMARE)
Experimental: as §1

[3] = test system: Echinochloa crus-galli (ECHCG)
Experimental: as §1

Solanum nigrum (SOLNI) = test system: Solanum nigrum (SOLNI)
Experimental: as §1

Setaria faberi (SETFA) = test system: Setaria faberi (SETFA)
Experimental: as §1

Row | Structure (SMILES) | IPOHE: percentage damage caused to the plant (five point scale) [1] | LOLPE: percentage damage caused to the plant (five point scale) (Lolium perenne (LOLPE)) | AMARE: percentage damage caused to the plant (five point scale) [2] | ECHCG: percentage damage caused to the plant (five point scale) [3] | SOLNI: percentage damage caused to the plant (five point scale) (Solanum nigrum (SOLNI)) | SETFA: percentage damage caused to the plant (five point scale) (Setaria faberi (SETFA))
1 | Cc1nn(C)c(=O)c(-c2ccccc2OCc2ccccc2)c1O [Compound 1.002] | 1 (1=0-19%) | 1 (1=0-19%) | 4 (4=60-79%) | 1 (1=0-19%) | 5 (5=80-100%) | 1 (1=0-19%)
2 | Cc1nn(C)c(=O)c(-c2cccc(Cl)c2OCc2ccccc2)c1O [Compound 1.003] | 5 (5=80-100%) | 5 (5=80-100%) | 4 (4=60-79%) | 5 (5=80-100%) | 5 (5=80-100%) | 3 (3=40-59%)
3 | Cc1nn(C)c(=O)c(-c2c(F)ccc(Cl)c2OCc2ccccc2)c1O [Compound 1.004] | 5 (5=80-100%) | 5 (5=80-100%) | 5 (5=80-100%) | 5 (5=80-100%) | 5 (5=80-100%) | 5 (5=80-100%)
4 | Cc1nn(C)c(=O)c(-c2c(Cl)ccc(Cl)c2OCc2ccc(Cl)c(Cl)c2)c1O [Compound 1.005] | 5 (5=80-100%) | 5 (5=80-100%) | 5 (5=80-100%) | 5 (5=80-100%) | 5 (5=80-100%) | 5 (5=80-100%)
5 | Cc1nn(C)c(=O)c(-c2c(Cl)cc(Cl)cc2OCc2ccccc2)c1O [Compound 1.006] | 5 (5=80-100%) | 2 (2=20-39%) | 5 (5=80-100%) | 3 (3=40-59%) | 5 (5=80-100%) | 3 (3=40-59%)
6 | CCc1nn(C)c(=O)c(-c2c(Cl)ccc(Cl)c2OCc2ccccc2)c1O [Compound 1.007] | 5 (5=80-100%) | 4 (4=60-79%) | 5 (5=80-100%) | 5 (5=80-100%) | 5 (5=80-100%) | 5 (5=80-100%)
7 | Cn1nc(C2CC2)c(O)c(-c2c(Cl)ccc(Cl)c2OCc2ccccc2)c1=O [Compound 1.009] | 5 (5=80-100%) | 5 (5=80-100%) | 5 (5=80-100%) | 5 (5=80-100%) | 5 (5=80-100%) | 5 (5=80-100%)
8 | CCc1nn(C)c(=O)c(-c2c(F)ccc(Cl)c2OCc2ccccc2)c1O [Compound 1.010] | 5 (5=80-100%) | 4 (4=60-79%) | 5 (5=80-100%) | 4 (4=60-79%) | 5 (5=80-100%) | 3 (3=40-59%)
9 | Cn1nc(C2CC2)c(O)c(-c2c(F)ccc(Cl)c2OCc2ccccc2)c1=O [Compound 1.012] | 5 (5=80-100%) | 5 (5=80-100%) | 5 (5=80-100%) | 5 (5=80-100%) | 5 (5=80-100%) | 5 (5=80-100%)
10 | Cc1nn(C)c(=O)c(-c2c(Cl)ccc(F)c2OCc2ccccc2)c1O [Compound 1.014] | 5 (5=80-100%) | 3 (3=40-59%) | 4 (4=60-79%) | 4 (4=60-79%) | 5 (5=80-100%) | 5 (5=80-100%)
11 | Cc1nn(C)c(=O)c(-c2c(F)ccc(F)c2OCc2ccccc2)c1O [Compound 1.016] | 5 (5=80-100%) | 4 (4=60-79%) | 5 (5=80-100%) | 5 (5=80-100%) | 5 (5=80-100%) | 5 (5=80-100%)
12 | CCn1nc(C)c(O)c(-c2c(F)ccc(Cl)c2OCc2ccccc2)c1=O [Compound 1.037] | 5 (5=80-100%) | 5 (5=80-100%) | 5 (5=80-100%) | 5 (5=80-100%) | 5 (5=80-100%) | 4 (4=60-79%)
13 | Cc1nn(C2CC2)c(=O)c(-c2c(Cl)ccc(Cl)c2OCc2ccccc2)c1O [Compound 1.041] | 5 (5=80-100%) | 4 (4=60-79%) | 5 (5=80-100%) | 5 (5=80-100%) | 5 (5=80-100%) | 5 (5=80-100%)
14 | Cc1nn(C2CC2)c(=O)c(-c2c(F)ccc(Cl)c2OCc2ccccc2)c1O [Compound 1.044] | 5 (5=80-100%) | 5 (5=80-100%) | 5 (5=80-100%) | 5 (5=80-100%) | 5 (5=80-100%) | 5 (5=80-100%)
15 | COc1ccc(COc2c(Cl)ccc(Cl)c2-c2c(O)c(C)nn(C)c2=O)cc1 [Compound 1.067] | 5 (5=80-100%) | 5 (5=80-100%) | 2 (2=20-39%) | 5 (5=80-100%) | 5 (5=80-100%) | 5 (5=80-100%)
16 | Cc1nn(C)c(=O)c(-c2c(Cl)cccc2OCc2ccccc2)c1O [Compound 1.068] | 4 (4=60-79%) | 2 (2=20-39%) | 3 (3=40-59%) | 4 (4=60-79%) | 5 (5=80-100%) | 4 (4=60-79%)
17 | Cc1nn(C)c(=O)c(-c2c(C(F)(F)F)ccc(F)c2OCc2ccccc2)c1O [Compound 1.069] | 5 (5=80-100%) | 3 (3=40-59%) | 3 (3=40-59%) | 5 (5=80-100%) | 5 (5=80-100%) | 5 (5=80-100%)
18 | Cn1nc(C2CC2)c(O)c(-c2c(C(F)(F)F)ccc(Cl)c2OCc2ccccc2)c1=O [Compound 1.070] | 5 (5=80-100%) | 5 (5=80-100%) | 5 (5=80-100%) | 5 (5=80-100%) | 5 (5=80-100%) | 5 (5=80-100%)
19 | Cn1nc(C(F)(F)F)c(O)c(-c2c(C(F)(F)F)ccc(Cl)c2OCc2ccccc2)c1=O [Compound 1.071] | 5 (5=80-100%) | 3 (3=40-59%) | 3 (3=40-59%) | 4 (4=60-79%) | 5 (5=80-100%) | 5 (5=80-100%)
20 | CCc1nn(C)c(=O)c(-c2c(C(F)(F)F)ccc(Cl)c2OCc2ccccc2)c1O [Compound 1.072] | 5 (5=80-100%) | 2 (2=20-39%) | 2 (2=20-39%) | 4 (4=60-79%) | 5 (5=80-100%) | 5 (5=80-100%)
